Data reported in patent publication US12528769B2, “Synthesis of (2S,5R)-5-(2-chlorophenyl)-1-(2′-methoxy-[1,1′-biphenyl]-4-carbonyl)pyrrolidine-2-carboxylic acid” (EPICS THERAPEUTICS, priority 2020, dated 2026).
Read-outs that look alike come from different tables or passages of the source.

Legend:
Type in all cases: physicochemical
[1] = Solubility in water; conditions: for Native pH: 150 mg material in 1.0 mL deionized water, before pH adjustment; for solubility: deionized water, pH 7.4, aqueous buffer, thermodynamic from solid
Method: Method. The solubility in water was studied as described hereafter. 150 mg of the studied materials of (1), (1·Na) and (1·K) were transferred to a glass vial and 1.0 mL of deionized water was added, vortex and ultrasonic treatment cycles were applied during 5 min. Then pH was checked and adjusted to pH=9.0-10.0 range by accurate addition of 2M aqueous solution of NaOH for (1) and (1·Na) or KOH for (1·K). Then several cycles of vortex and ultrasonic treatment were applied for 30 min. pH was adjusted to pH=7.2-7.6 range by careful addition of NaOH or KOH or HCl aqueous solutions. Vortex and ultrasonic treatment cycles and pH adjustments were repeated until pH stabilized at pH=7.2-7.6 range. Then the suspensions were centrifuged at 3000 rpm and supernatant was filtered thought membrane filter. The resulting filtrate was diluted in 1000 folds with DMSO and analyzed by HPLC against standard solution with known concentration.

[2] = Forced degradation: photolytic stability; conditions: for Photolytic stability, purity (%): solutions 1 mg/mL in ACN/water (3:7), cool daylight lamp, around 22° C.; for Initial purities, purity (%): T0, baseline of the photolytic and thermal stability studies; for Decrease of purity in the photolytic stability assay: after 3 weeks
Method: For photolytic stability, cool daylight lamp OSRAM DULUX TWIST 23W 1600 lm 6500 K located in 20 cm distance from the studied samples was used. Samples were prepared at 1 mg/mL concentration in ACN/water (3:7 v/v) solution and exposed to light in capped glass vials placed on reflective surface at ambient temperature (around 22° C.).
(§1) Samples were analyzed by RP-HPLC and Chiral HPLC at TO, after 1 week and after 3 weeks. For RP-HPLC analysis samples were analyzed directly from solutions used for stability study. For Chiral HPLC, aliquots were evaporated in Genevac at 40° C. and re-dissolved in the mobile phase.

[3] = Forced degradation: thermal stability; conditions: for Thermal stability, purity (%): solids at 115° C.; for Decrease of purity in the thermal stability assay: after 3 weeks
Method: For thermal stability powders were exposed to elevated temperature in capped glass vials kept inside thermostatic oven at 115° C.
as §1

[4] = water, pH adjusted to 7.2-7.6, filtrate analysed by HPLC, read-out: Maximal solubility pH 7.4

Row | Native pH [1] | Maximal solubility pH 7.4 ([1]; water, pH adjusted to 7.2-7.6, filtrate analysed by HPLC) | solubility [1, 4] | solubility ([1]; water, read-out: Aqueous solubility (confirmed)) | Increase of aqueous solubility compared with the free acid (1) ([1]; water, pH 7.4) | Increase of aqueous solubility compared with the potassium salt (1·K) ([1]; water, pH 7.4) | Photolytic stability, purity (%) ([2]; 1 week) | Photolytic stability, purity (%) ([2]; 3 weeks) | Initial purities, purity (%) [2] | Decrease of purity in the photolytic stability assay [2] | Thermal stability, purity (%) ([3]; 1 week) | Thermal stability, purity (%) ([3]; 3 weeks) | Decrease of purity in the thermal stability assay [3] | Solubility in water (in words) ([1]; acid form) | Structure (SMILES)
1 | 7 | 87 mg/mL | – | – | – | – | – | – | – | – | – | – | – | – | COc1ccccc1-c1ccc(C(=O)N2[C@@H](c3ccccc3Cl)CC[C@H]2C(=O)[O-])cc1.[K+] [1·K]
2 | 7 | – | 129 mg/mL | ~130 mg/mL | 2 fold | 1.5 fold | 98.5% | 97.0% | 99.3% | 2.3% | 99.1% | 98.9% | 0.4% | – | COc1ccccc1-c1ccc(C(=O)N2[C@@H](c3ccccc3Cl)CC[C@H]2C(=O)[O-])cc1.[Na+] [1·Na, sodium (2S,5R)-5-(2-chlorophenyl)-1-(2′-methoxy-[1,1′-biphenyl]-4-carbonyl)pyrrolidine-2-carboxylate]
3 | 5 | – | > 64 mg/mL | – | – | – | 96.7% | 75.9% | 99.3% | 23.6% | 88.5% | 71.4% | 28.1% | poorly soluble in water | COc1ccccc1-c1ccc(C(=O)N2[C@@H](c3ccccc3Cl)CC[C@H]2C(=O)O)cc1 [compound 1, (2S,5R)-5-(2-chlorophenyl)-1-(2′-methoxy-[1,1′-biphenyl]-4-carbonyl)pyrrolidine-2-carboxylic acid]
